Assay [1] relates to ATF4 in CCRF-CEM leukemia cells (PERK). Briefly: CCRF-CEM TG ATF4 ELISA, phenotypic assay for cellular inhibition of PERK preactivated by thapsigargin. The following applies: Homo sapiens; Thapsigargin (1 μM) stimulated CCRF-CEM cells. Format: cell-based. On the technique in general: In an ELISA, binding on a coated surface is turned into a signal by an enzyme label.
The subject of assay [2] is ATF4 in H929 multiple myeloma cells. The assay can be described thus: H929 ATF4 ELISA assay (stimulation of cellular ATF4). Format: cell-based. Conditions: 4 h, no thapsigargin. How it is done: H929 multiple myeloma cells (catalog #CRL-9068) were obtained from the American Type Culture Collection (ATTC, Manassas, VA). Briefly, cells were grown in RPMI-1640 medium supplemented with 20% heat-inactivated fetal bovine serum (catalog #A3840002, ThermoFisher Scientific, Waltham, MA), 1% Penicillin/Streptomycin/L-Glutamine (catalog #10378016, ThermoFisher Scientific, Waltham, MA), and 0.05 mM 2-mercaptoethanol (catalog #21985-023, ThermoFisher Scientific, Waltham, MA) at 37° C., 5% CO2, and 95% humidity. Cells were expanded until reaching one million five hundred thousand cells per mL at which time they were subcultured or harvested for assay use. One million five hundred thousand cells per well in 1 mL complete growth medium were dispensed into 12-well plates and incubated overnight. A serial dilution of test compound was added, and cells were incubated at 37° C., 5% CO2, and 95% for four hours. Cells were lysed then ATF4 levels were measured using an ELISA assay (Proteintech, Rosemont, IL). Absorbance is measured at 450 nm and 544 nM using a Synergy2 or equivalent reader (Biotek, Winooski VT). Data were analyzed using PRISM software (Graphpad, San Diego, CA) to calculate fold stimulation of cellular ATF4 relative to vehicle treated control.

The target in assay [3] is PERK oligomers in HEK-293 cells (Homo sapiens (Human), UniProt Q9NZJ5). The assay can be described thus: Detection of PERK oligomerization using NanoBRET. Format: cell-based. Conditions: read-out: EC50 of stimulation of the formation of PERK oligomers. How it is done: Constructs for BRET were built using the NanoBRET™ Flexi® PPI Starter System (Promega, Madison, WI). The full-length PERK ORF was obtained from Genscript (Piscataway, NJ). HEK-293 cells (catalog #CRL-1573) were obtained from the American Type Culture Collection (ATTC, Manassas, VA). Cells were grown in MEM medium supplemented with 10% heat-inactivated fetal bovine serum (Invitrogen, Carlsbad, CA) and 1% Penicillin/Streptomycin/L-Glutamine at 37° C., 5% CO2, and 95% humidity. For BRET assays, cells were seeded at a density of 40,000 cells/mL in culture medium in 6-well plates and allowed to attach and recover. Cells were transfected with C-terminally tagged PERK-NLuc and C-terminally tagged PERK-Halo using Lipofectamine LTX (Thermo, Waltham, MA) and allowed to express proteins overnight at 37° C., 5% CO2, and 95% humidity. Cells were then detached from culture dishes using 0.05% trypsin-EDTA, collected, and diluted in assay medium consisting of Opti-MEM® I Reduced Serum Medium supplemented with 4% FBS (Thermo) to 22,000 cells/mL. Cells were dispensed into 96-well cell culture plates and HaloTag® NanoBRET™ 618 Ligand (Promega) was added to a final concentration of 100 nM. […] Donor ([…]) and acceptor (618) emissions were measured on a Synergy Neo2 Multi-Mode Reader (BioTek, Winooski, VT) within 10 min of substrate addition. […]
(In general: In BRET a luciferase serves as donor, and the signal depends on an acceptor being close.)

Assay [4] concerns MV-4-11 acute myeloid leukemia xenograft. The assay can be described thus: MV-4-11 xenograft efficacy model. Format: in vivo, mice. The following applies: 25 mg/kg/day orally for 14 days in combination with Leunase 1000 U/kg. The protocol:
The MV-4-11 acute myeloid leukemia xenograft model was performed in compliance with all the laws, regulations, and guidelines of the National Institutes of Health (NIH) and with the approval of the Animal Care and Use Committee of Crown Bioscience (Taicang, China), an AAALAC accredited facility. Food and water were provided ad libitum. […] Female NOD/SCID (6-9 weeks old; Vital River Laboratories Research Models and Services (Beijing, China)) were inoculated subcutaneously right front flank region with five million cells in Dulbecco's Phosphate Buffered Saline:Matrigel (1:1), using a 27-gauge needle and syringe. When tumor burdens reached 150 mm^3 on average on day 7, mice were randomly assigned into groups such that the mean tumor burden for all groups was within 10% of the overall mean tumor burden for the study population. Groups were treated on days 7-21 as follows: vehicle control (dosed orally and IP to mimic combination group (n=10); Compound 16 dosed orally at 25 mg/kg/day (n=10); Leunase (Kyowa Kirin, Japan) dosed IP at 1000 U/kg/day (n=10); Leunase (Kyowa Kirin, Japan) dosed IP at 1000 U/kg/day (n=10) and Compound 16 dosed orally at 25 mg/kg/day (n=10). Tumor volume and body weight were measured three times per week. Tumor burden (mg) was estimated from caliper measurements by the formula: tumor burden (mg=mm^3)=(length×width^2)/2.

As a reminder, the pIC50 is the negative decadic logarithm of the IC50, by convention in mol/L. A word on the pEC50: it is −log10 of the EC50, conventionally taken in molar units.

pEC50, pIC50: −log10 of the molar value.

Sequence of PERK oligomers in HEK-293 cells (Q9NZJ5 30-1116): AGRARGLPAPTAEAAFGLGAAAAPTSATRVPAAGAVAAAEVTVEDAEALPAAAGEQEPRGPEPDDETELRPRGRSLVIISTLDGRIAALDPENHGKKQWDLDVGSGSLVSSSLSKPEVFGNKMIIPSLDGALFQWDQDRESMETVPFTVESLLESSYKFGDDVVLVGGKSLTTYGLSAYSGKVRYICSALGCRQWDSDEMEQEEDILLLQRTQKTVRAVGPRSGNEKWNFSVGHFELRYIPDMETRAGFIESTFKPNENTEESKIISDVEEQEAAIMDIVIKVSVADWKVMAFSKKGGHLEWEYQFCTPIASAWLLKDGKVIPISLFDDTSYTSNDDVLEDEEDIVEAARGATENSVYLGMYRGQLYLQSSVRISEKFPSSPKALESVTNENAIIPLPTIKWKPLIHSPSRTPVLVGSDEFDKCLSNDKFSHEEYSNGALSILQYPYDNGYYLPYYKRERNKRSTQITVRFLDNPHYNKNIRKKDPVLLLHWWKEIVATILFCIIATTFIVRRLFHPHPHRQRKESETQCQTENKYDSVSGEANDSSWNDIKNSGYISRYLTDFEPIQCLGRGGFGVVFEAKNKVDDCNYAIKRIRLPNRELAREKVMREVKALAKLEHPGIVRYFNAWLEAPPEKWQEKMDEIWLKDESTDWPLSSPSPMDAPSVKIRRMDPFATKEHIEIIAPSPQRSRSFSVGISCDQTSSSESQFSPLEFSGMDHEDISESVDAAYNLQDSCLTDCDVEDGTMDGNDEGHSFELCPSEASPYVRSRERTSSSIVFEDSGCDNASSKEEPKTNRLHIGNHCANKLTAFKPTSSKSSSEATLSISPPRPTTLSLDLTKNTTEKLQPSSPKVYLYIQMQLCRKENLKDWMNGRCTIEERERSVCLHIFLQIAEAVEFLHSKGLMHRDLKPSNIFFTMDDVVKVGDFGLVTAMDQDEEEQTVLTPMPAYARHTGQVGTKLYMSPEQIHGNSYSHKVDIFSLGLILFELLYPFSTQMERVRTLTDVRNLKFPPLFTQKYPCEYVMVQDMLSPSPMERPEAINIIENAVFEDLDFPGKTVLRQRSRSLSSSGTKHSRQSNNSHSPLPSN
Sequence of PERK oligomers in HEK-293 cells (Q9NZJ5 30-1116): as above

With `CNc1ncc2cc(-c3cccc(NS(=O)(=O)c4cc(Cl)cnc4OC)c3F)c(NC)nc2n1` [Compound 16], in assay [1], the pIC50 was 5.00 to 6.00. Besides, in assay [2], the “H929 NS ATF4 ELISA (fold stimulation of ATF4 relative to vehicle)” value is “+++ (“+++” refers to an ATF4 stim greater than 10 fold and less than or equal to 20 fold)”. Besides, in assay [3], the pEC50 was 6.57. Moreover, the “effect on MV-4-11 tumor growth” value in assay [4] is reported as “tumor regression”.
